Data from EP4818169A1, “CRYSTAL FORM OF COMPOUND SALT, PREPARATION METHOD THEREFOR AND USE THEREOF” (Apeiron Therapeutics (Hong Kong) Ltd., priority 2024, dated 2025).
≈ marks a conversion by molar mass, not a printed value.

Tests used:
[1] = Hygroscopicity by dynamic vapor sorption (DVS) test; type: physicochemical; conditions: for hygroscopic weight gain: DVS, 25°C, from 0% RH to 80% RH; for crystalline form after the DVS test: XRPD before and after DVS test
Experimental: Moisture adsorption and desorption data were obtained using a dynamic vapor sorption device (Model TA Discovery SA). Samples were equilibrated at 25°C/0% RH for 300 min at the start of the experiment. Thereafter, humidity was varied from 0% to 95% RH in 5% RH increments, with nitrogen used to control and maintain the humidity. Equilibration during testing was defined as a mass change rate of < 0.02% per minute over 10 min, with a maximum equilibration time of 120 min.
From 0% RH to 80% RH, the hygroscopic weight gain was approximately 0.25%, indicating very low hygroscopicity.

[2] = Physicochemical stability on open storage (XRPD and HPLC); conditions: for Crystalline Form Change: merged cell for all storage conditions (40°C/75%RH, 60 °C, 25°C/60%RH, open) and times (2 and 4 weeks), XRPD
Experimental: The high performance liquid chromatography (HPLC) method for determining enantiomeric excess (%) used in the present application is shown in Table 5.
The purity testing method described in the present application is shown as follows.
(§1) For chemical stability studies, two open samples were prepared at each time point for each condition. Approximately 2 mg of maleate crystalline form A was transferred into a 20 mL glass vial, which was then covered with perforated aluminum foil to serve as an open sample. Samples were stored at 25°C/60% RH, 40°C/75% RH, and 60°C.
as §1, with “For physical” for “For chemical”, “Approximately 10” for “Approximately 2”, “was” for “was then”
All samples were stored for 4 weeks under the specified storage conditions. At predetermined time points (initial, 2 weeks, and 4 weeks), the corresponding samples were withdrawn and subject to chemical and physical evaluations, respectively. The physicochemical stability was assessed by XRPD and HPLC.
as §1, with “p-toluenesulfonate” for “maleate”
as §1, with “For physical” for “For chemical”, “Approximately 10” for “Approximately 2”, “of p-toluenesulfonate” for “of maleate”, “was” for “was then”, “and 60°C, respectively.” for “and 60°C.”

[3] = Mechanical stability: jet milling; type: physicochemical; conditions: feed and milling pressure 5.5 bar, 23 °C; XRPD
Experimental: The milled powder was then analyzed by XRPD and PLM, with results shown in Figure 27 and Figure 28, respectively.

[4] = Mechanical stability: pressurization method; type: physicochemical; conditions: 40 MPa held for 1 min, 5 mm die; XRPD
Experimental: Pressurization method: Maleate crystalline form A was weighed and transferred into a 5 mm-diameter die. The upper piston was then manually driven down into the die until a pressure of 40 MPa was reached and held for 1 min. Subsequently, the sample was removed and manually ground into a powder. Finally, the resulting powder was analyzed by XRPD.

[5] = Stability of the crystalline form in the formulation (tablet compression with microcrystalline cellulose); type: physicochemical; conditions: 50% (w/w) with microcrystalline cellulose PH102, tablets compressed at 4.2 kN and 9.2 kN; XRPD
Experimental: Equal amounts of maleate crystalline form A and microcrystalline cellulose PH102 were weighed to prepare a powder formulation comprising 50% (w/w) maleate crystalline form A, and the two components were mixed thoroughly.
A total of 200 mg of the uniformly mixed powder was transferred into an 8 mm-diameter die of a rotary tablet press. One tablet was compressed at 4.2 kN and another at 9.2 kN.
The resulting tablets were characterized for weight and hardness.

[6] = Dynamic solubility in different media (HPLC); type: physicochemical; conditions: for Crystalline Form Change / Solubility / pH: 24 h; for Crystalline Form Change: XRPD of precipitated solids; for Solubility: 37°C; for solubility at 24 h: 37 °C, thermodynamic from solid; for pH: pH of supernatant
Experimental: The preparation method of simulated gastrointestinal fluid involved in the present disclosure is: SGF: Transfer 2.02 g of sodium chloride into a 1000 mL beaker and add 950 mL of purified water to dissolve. Next, adjust the pH to 1.2 with 12 N hydrochloric acid. Transfer the solution to a 1000 mL volumetric flask and make up to 1000 mL with purified water.
FeSSIF: Transfer 4.04 g of sodium hydroxide, 8.65 g of acetic acid, and 11.87 g of sodium chloride into a 1000 mL volumetric flask, and dissolve with 950 mL of purified water. Titrate the obtained solution to pH 5.0 with 1M sodium hydroxide or 1M hydrochloric acid aqueous solution, and then make up to 1000 mL with purified water. Finally, weigh 11.20 g of SIF powder, add it to the above 1000 mL of pH 5.0 solution, and stir magnetically until clear.
(§2) A total of 10 mg of maleate crystalline form A was transferred into a dry, clean 4 mL glass vial. Then, 1 mL of simulated gastric fluid (SGF), fed state simulated intestinal fluid (FeSSIF), or purified water was added to the vial. All vials were placed on a shaker and agitated at 200 rpm at 37°C.
At the predetermined time point (24 h), 200 µL of the sample was withdrawn from the vial into a centrifuge tube and centrifuged at 90,000 rpm for 5 min. An appropriate amount of the supernatant was then diluted and analyzed by HPLC to determine the solubility.
The remaining 800 µL of suspension in the vial was centrifuged at 8000 rpm for 10 min. The pH of the resulting supernatant was measured, and the precipitated solids were vacuum-dried at 40°C for approximately 16 h. The dried precipitated solids were then characterized by X-ray powder diffraction.
as §2, with “p-toluenesulfonate” for “maleate”
At the predetermined time point (24 h), 200 µL of the sample was withdrawn from the vial into a centrifuge tube and centrifuged at 90,000 rpm for 5 min. An appropriate amount of the supernatant was then diluted and analyzed by high performance liquid chromatography to determine the solubility.

| SMILES | hygroscopic weight gain [1] | crystalline form after the DVS test [1] | Appearance ([2]; 25°C/60%RH (Open), 2 weeks) | Purity (%) ([2]; 25°C/60%RH (Open), 2 weeks) | ee (%) ([2]; 25°C/60%RH (Open), 2 weeks) | Appearance ([2]; 25°C/60%RH (Open), 4 weeks) | Purity (%) ([2]; 25°C/60%RH (Open), 4 weeks) | ee (%) ([2]; 25°C/60%RH (Open), 4 weeks) | Appearance ([2]; 40°C/75%RH (Open), 2 weeks) | Purity (%) ([2]; 40°C/75%RH (Open), 2 weeks) | ee (%) ([2]; 40°C/75%RH (Open), 2 weeks) | Appearance ([2]; 40°C/75%RH (Open), 4 weeks) | Purity (%) ([2]; 40°C/75%RH (Open), 4 weeks) | ee (%) ([2]; 40°C/75%RH (Open), 4 weeks) | Appearance ([2]; 60 °C (Open), 2 weeks) | Purity (%) ([2]; 60 °C (Open), 2 weeks) | ee (%) ([2]; 60 °C (Open), 2 weeks) | Appearance ([2]; 60 °C (Open), 4 weeks) | Purity (%) ([2]; 60 °C (Open), 4 weeks) | ee (%) ([2]; 60 °C (Open), 4 weeks) | other results |
| --- | --- | --- | --- | --- | --- | --- | --- | --- | --- | --- | --- | --- | --- | --- | --- | --- | --- | --- | --- | --- | --- |
| CN(C(=O)c1ccc2nc(N)c3cncn3c2c1)[C@@H]1COc2cc(C(F)(F)F)ccc21 [Maleate crystalline form A, (S)-4-amino-N-methyl-N-(6-(trifluoromethyl)-2,3-dihydrobenzofuran-3-yl)imidazo[1,5-a]quinoxaline-8-carboxamide] | approximately 0.25% | did not change | Off-white powder | 99.68 | 100.00 | Off-white powder | 99.67 | 100.00 | Off-white powder | 99.69 | 100.00 | Off-white powder | 99.67 | 100.00 | Off-white powder | 99.69 | 100.00 | Off-white powder | 99.67 | 100.00 | Appearance ([2]; Initial): Off-white powder; Purity (%) ([2]; Initial): 99.66%; ee (%) ([2]; Initial): 100.00%; Crystalline Form Change [2]: None; crystalline form after jet milling [3]: retained its crystalline form; crystalline form after pressurization [4]: retained its crystalline form; crystallinity in the formulation [5]: remained relatively stable; Crystalline Form Change ([6]; FeSSIF): None; Solubility ([6]; H2O): 42.12 µg/mL; Crystalline Form Change ([6]; H2O): None; Crystalline Form Change ([6]; SGF): None; solubility at 24 h ([6]; fed state simulated intestinal fluid (FeSSIF), pH 5, fessif, FeSSIF): 258 µg/mL; pH ([6]; FeSSIF): 4.83; pH ([6]; H2O): 4.17; pH ([6]; SGF): 0.96; solubility at 24 h ([6]; simulated gastric fluid (SGF), pH 1.2, simulated gastric fluid, SGF): 443 µg/mL |
| CN(C(=O)c1ccc2nc(N)c3cncn3c2c1)[C@@H]1COc2cc(C(F)(F)F)ccc21 [p-toluenesulfonate crystalline form A, (S)-4-amino-N-methyl-N-(6-(trifluoromethyl)-2,3-dihydrobenzofuran-3-yl)imidazo[1,5-a]quinoxaline-8-carboxamide] | approximately 0.37% | did not change | Off-white powder | 99.83 | 100.00 | Off-white powder | 99.84 | 100.00 | Off-white powder | 99.84 | 100.00 | Off-white powder | 99.80 | 100.00 | Off-white powder | 99.66 | 100.00 | Off-white powder | 99.50 | 100.00 | Appearance ([2]; Initial): Off-white powder; Purity (%) ([2]; Initial): 99.81%; ee (%) ([2]; Initial): 100.00%; Crystalline Form Change [2]: None; Solubility ([6]; FeSSIF): 365.38 µg/mL (≈ 855 µM); Crystalline Form Change ([6]; FeSSIF): None; Solubility ([6]; H2O): 248.78 µg/mL (≈ 582 µM); Crystalline Form Change ([6]; H2O): None; Solubility ([6]; SGF): 293.98 µg/mL (≈ 688 µM); Crystalline Form Change ([6]; SGF): None; pH ([6]; FeSSIF): 4.78; pH ([6]; H2O): 3.19; pH ([6]; SGF): 0.98 |
